One experiment has as its target T1, human recombinant HDAC1 (Homo sapiens, UniProt Q13547).
T1 construct: purchased Enzo Life Science, Inc. BML-SE456
In words: HDAC1 enzyme activity inhibition (HDAC Fluorimetric Drug Discovery Kit). The class given is biochemical. The settings on record: human recombinant HDAC1, Fluor de Lys substrate 10 μM, 30° C. 60 minutes. As for the experimental part: (§1) An experiment was conducted to identify the selectivity of the 1,3,4-oxadiazole triazole compound of the present invention to HDAC6 through an experiment on HDAC1 and HDAC6 enzyme activity inhibition.
(§2) The HDAC enzyme activity was measured with HDAC Fluorimetric Drug Discovery Kit (BML-AK511, 516) of Enzo Life Science, Inc. For the test on the HDAC1 enzyme activity, human recombinant HDAC1 (BML-SE456) was used as an enzyme source and Fluor de Lys®-“SIRT1 (BNL-KI177)” was used as a substrate. A 5-fold dilution of the compound was divided into a 96-well plate, after which 0.3 μg of the enzyme and 10 μM of the substrate were inserted into each well and subjected to reaction at 30° C. for 60 minutes, such that Fluor de Lys® Developer II (BML-KI176) was inserted thereinto and subjected to reaction for 30 minutes and finished. After that, a fluorescence value (Ex 360, Em 460) was measured with a multi-plate reader (Flexstation 3, Molecular Device). An experiment on HDAC6 enzyme was conducted in accordance with the same protocol as in the HDAC1 enzyme activity test method by using human recombinant HDAC6 (382180) of Calbiochem Inc. For final result values, each IC50 value was calculated with GraphPad Prism 4.0 program.

The next experiment has as its target T2, human recombinant HDAC6 (Homo sapiens, UniProt Q9UBN7).
T2 construct: purchased Calbiochem Inc. 382180
T2 sequence (Q9UBN7 1-1215): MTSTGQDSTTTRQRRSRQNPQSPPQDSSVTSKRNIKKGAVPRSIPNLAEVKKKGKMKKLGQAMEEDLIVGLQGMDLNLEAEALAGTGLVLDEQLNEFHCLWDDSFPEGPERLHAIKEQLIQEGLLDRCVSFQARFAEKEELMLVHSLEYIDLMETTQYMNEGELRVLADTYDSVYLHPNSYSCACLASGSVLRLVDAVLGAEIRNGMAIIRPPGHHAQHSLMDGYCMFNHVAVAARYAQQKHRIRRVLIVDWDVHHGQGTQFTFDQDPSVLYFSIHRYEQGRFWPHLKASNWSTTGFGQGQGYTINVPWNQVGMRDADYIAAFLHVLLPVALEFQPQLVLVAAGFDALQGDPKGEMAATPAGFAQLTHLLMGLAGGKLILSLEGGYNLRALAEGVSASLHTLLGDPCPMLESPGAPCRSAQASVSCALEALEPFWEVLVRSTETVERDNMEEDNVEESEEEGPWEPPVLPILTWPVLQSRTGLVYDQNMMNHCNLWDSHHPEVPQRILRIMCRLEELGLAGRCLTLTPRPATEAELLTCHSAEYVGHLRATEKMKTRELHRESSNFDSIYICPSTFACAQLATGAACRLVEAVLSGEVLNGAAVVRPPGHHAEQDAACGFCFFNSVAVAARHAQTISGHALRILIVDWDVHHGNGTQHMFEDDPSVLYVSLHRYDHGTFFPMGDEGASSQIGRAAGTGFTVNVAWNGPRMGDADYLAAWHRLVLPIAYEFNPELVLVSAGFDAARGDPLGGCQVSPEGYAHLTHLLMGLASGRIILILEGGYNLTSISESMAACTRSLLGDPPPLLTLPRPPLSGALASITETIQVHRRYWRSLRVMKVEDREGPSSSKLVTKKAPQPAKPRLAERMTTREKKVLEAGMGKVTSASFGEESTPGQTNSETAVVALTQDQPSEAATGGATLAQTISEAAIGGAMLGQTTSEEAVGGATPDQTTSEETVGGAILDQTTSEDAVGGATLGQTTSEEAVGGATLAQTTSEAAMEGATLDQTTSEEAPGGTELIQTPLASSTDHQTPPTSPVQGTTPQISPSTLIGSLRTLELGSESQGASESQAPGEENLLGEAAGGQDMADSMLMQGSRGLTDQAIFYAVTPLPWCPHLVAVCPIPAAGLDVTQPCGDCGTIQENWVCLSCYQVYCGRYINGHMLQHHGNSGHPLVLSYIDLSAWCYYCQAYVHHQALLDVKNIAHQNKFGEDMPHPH
The experiment in a line: HDAC6 enzyme activity inhibition (HDAC Fluorimetric Drug Discovery Kit). In kind it is biochemical. The settings on record: HDAC1 versus HDAC6. The procedure:
as §1, §2

The IC50 is the point on the concentration scale where inhibition reaches its midpoint.

T1 sequence (Q13547 whole entry): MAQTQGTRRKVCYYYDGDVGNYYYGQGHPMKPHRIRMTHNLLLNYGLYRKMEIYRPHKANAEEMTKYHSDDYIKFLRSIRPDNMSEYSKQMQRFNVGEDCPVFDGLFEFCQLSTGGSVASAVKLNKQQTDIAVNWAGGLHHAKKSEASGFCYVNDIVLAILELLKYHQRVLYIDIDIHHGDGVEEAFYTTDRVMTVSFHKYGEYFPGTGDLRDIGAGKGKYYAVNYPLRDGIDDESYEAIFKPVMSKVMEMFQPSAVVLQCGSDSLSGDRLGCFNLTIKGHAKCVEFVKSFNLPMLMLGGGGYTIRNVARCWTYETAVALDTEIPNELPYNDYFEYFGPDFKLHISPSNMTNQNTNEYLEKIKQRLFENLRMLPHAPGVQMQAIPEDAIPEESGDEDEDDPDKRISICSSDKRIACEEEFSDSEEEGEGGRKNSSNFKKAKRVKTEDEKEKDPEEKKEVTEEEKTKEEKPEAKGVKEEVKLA

On to `CN(C)Cc1ccc(-c2cn(Cc3ccc(-c4nnc(C(F)F)o4)cn3)nn2)cc1Cl` [Compound 41, 1-(2-chloro-4-(1-((5-(5-(difluoromethyl)-1,3,4-oxadiazol-2-yl)pyridin-2-yl)methyl)-1H-1,2,3-triazol-4-yl)phenyl)-N,N-dimethylmethanamine], for which the IC50 at human recombinant HDAC1 was above 50 µM. Also, the “HDAC6 selectivity (fold)” value at human recombinant HDAC6 came to 2083 fold.
As for `FC(F)c1nnc(-c2ccc(Cn3cc(-c4csc(CN5CC[C@@H](F)C5)c4)nn3)nc2)o1` [Compound 14, (R)-2-(difluoromethyl)-5-(6-((4-(5-((3-fluoropyrrolidin-1-yl)methyl)thiophen-3-yl)-1H-1,2,3-triazol-1-yl)methyl)pyridin-3-yl)-1,3,4-oxadiazole], the IC50 on human recombinant HDAC1 was above 50 µM. Besides, the “HDAC6 selectivity (fold)” value at human recombinant HDAC6 was determined as 1811 fold.
For `Fc1ccc(-c2cn(Cc3ccc(-c4nnc(C(F)F)o4)cn3)nn2)cc1CN1CCCC1` [Compound 22, 2-(difluoromethyl)-5-(6-((4-(4-fluoro-3-(pyrrolidin-1-ylmethyl)phenyl)-1H-1,2,3-triazol-1-yl)methyl)pyridin-3-yl)-1,3,4-oxadiazole] the same measures were above 50 µM and 3401 fold.
For `CN(C)Cc1ccc(F)c(-c2cn(Cc3ccc(-c4nnc(C(F)F)o4)cn3)nn2)c1` [Compound 20, 1-(3-(1-((5-(5-(difluoromethyl)-1,3,4-oxadiazol-2-yl)pyridin-2-yl)methyl)-1H-1,2,3-triazol-4-yl)-4-fluorophenyl)-N,N-dimethylmethanamine], the IC50 at human recombinant HDAC1 is above 50 µM. Also, the “HDAC6 selectivity (fold)” value on human recombinant HDAC6 is reported as 1798 fold.
For the compound `CC1CCN(Cc2ccc(F)c(-c3cn(Cc4ccc(-c5nnc(C(F)F)o5)cn4)nn3)c2)CC1` [Compound 19, 2-(difluoromethyl)-5-(6-((4-(2-fluoro-5-((4-methylpiperidin-1-yl)methyl)phenyl)-1H-1,2,3-triazol-1-yl)methyl)pyridin-3-yl)-1,3,4-oxadiazole], at human recombinant HDAC1, the IC50 is above 50 µM. Moreover, the “HDAC6 selectivity (fold)” value at human recombinant HDAC6 is reported as 1492 fold.
Regarding `CN(C)Cc1cccc(-c2cn(Cc3ccc(-c4nnc(C(F)F)o4)cn3)nn2)c1Cl` [Compound 34, 1-(2-chloro-3-(1-((5-(5-(difluoromethyl)-1,3,4-oxadiazol-2-yl)pyridin-2-yl)methyl)-1H-1,2,3-triazol-4-yl)phenyl)-N,N-dimethylmethanamine], the IC50 at human recombinant HDAC1 is above 50 µM. Further, the “HDAC6 selectivity (fold)” value on human recombinant HDAC6 is recorded as 1633 fold.
For `FC(F)c1nnc(-c2ccc(Cn3cc(-c4ccc(CN5CC[C@@H](F)C5)nc4)nn3)nc2)o1` [Compound 5, (R)-2-(difluoromethyl)-5-(6-((4-(6-((3-fluoropyrrolidin-1-yl)methyl)pyridin-3-yl)-1H-1,2,3-triazol-1-yl)methyl)pyridin-3-yl)-1,3,4-oxadiazole] the same measures were above 50 µM and 1547 fold.
With `Fc1ccc(-c2cn(Cc3ccc(-c4nnc(C(F)F)o4)cn3)nn2)cc1CN1CCCCC1` [Compound 24, 2-(difluoromethyl)-5-(6-((4-(4-fluoro-3-(piperidin-1-ylmethyl)phenyl)-1H-1,2,3-triazol-1-yl)methyl)pyridin-3-yl)-1,3,4-oxadiazole], the IC50 on human recombinant HDAC1 is above 50 µM. The “HDAC6 selectivity (fold)” value on human recombinant HDAC6 is on record as 2577 fold.
Take `Fc1cc(CN2CCCC2)cc(-c2cn(Cc3ccc(-c4nnc(C(F)F)o4)cn3)nn2)c1` [Compound 39, 2-(difluoromethyl)-5-(6-((4-(3-fluoro-5-(pyrrolidin-1-ylmethyl)phenyl)-1H-1,2,3-triazol-1-yl)methyl)pyridin-3-yl)-1,3,4-oxadiazole]: the IC50 on human recombinant HDAC1 is above 50 µM. At human recombinant HDAC6, the “HDAC6 selectivity (fold)” value was determined as 1773 fold.
The matching figures for `CN(C)Cc1cc(-c2cn(Cc3ccc(-c4nnc(C(F)F)o4)cn3)nn2)ccc1F` [Compound 23, 1-(5-(1-((5-(5-(difluoromethyl)-1,3,4-oxadiazol-2-yl)pyridin-2-yl)methyl)-1H-1,2,3-triazol-4-yl)-2-fluorophenyl)-N,N-dimethylmethanamine]: above 50 µM and 2702 fold.
The matching figures for `CN(C)Cc1cc(Cl)cc(-c2cn(Cc3ccc(-c4nnc(C(F)F)o4)cn3)nn2)c1` [Compound 31, 1-(3-chloro-5-(1-((5-(5-(difluoromethyl)-1,3,4-oxadiazol-2-yl)pyridin-2-yl)methyl)-1H-1,2,3-triazol-4-yl)phenyl)-N,N-dimethylmethanamine]: above 50 µM and 1424 fold.
`FC(F)c1nnc(-c2ccc(Cn3cc(-c4ccc(CN5CCC5)cn4)nn3)nc2)o1` [Compound 2, 2-(6-((4-(5-(azetidin-1-ylmethyl)pyridin-2-yl)-1H-1,2,3-triazol-1-yl)methyl)pyridin-3-yl)-5-(difluoromethyl)-1,3,4-oxadiazole]: the IC50 on human recombinant HDAC1 was above 50 µM. For the same compound, the “HDAC6 selectivity (fold)” value at human recombinant HDAC6 came out at 2252 fold.

Values taken from US20250214983A1, “1,3,4-OXADIAZOLE TRIAZOLE COMPOUNDS AS HISTONE DEACETYLASE 6 INHIBITOR, AND PHARMACEUTICAL COMPOSITION COMPRISING THE SAME” (Chong Kun Dang Pharmaceutical Corp., priority 2022, published 2025).
